In brackets after ≈: the same amount, converted by molar mass. Where two headings read alike, the source gives them in different places. Where a SMILES comes first, the peptide text is derived from it. Where no end group is shown, it is not given here. [ ]: non-standard residue; d: D form. Hyp = O=C(O)[C@@H]1C[C@@H](O)CN1; NMeL = CN[C@@H](CC(C)C)C(=O)O; Orn = NCCC[C@H](N)C(=O)O
Columns and labels:
E. coli 45849 = assay: Growth inhibition assay (MIC); format: cell-based, Escherichia coli
Summary of the method: (§1)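 Bacteria grown overnight in nutrient broth at 37° C were diluted to 5×10^6 CFU/mL in 1% TSB and exposed to peptides serially halved from 125 μg/mL to 60 ng/mL final. After 20 h at 37° C, A595 gave the MIC, measured in triplicate.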

S. typhi S5 = format: cell-based, Salmonella typhi; settings: S5, 20 h
Summary of the method: as §1

E. coli D31 = format: cell-based, Escherichia coli; settings: D31, 20 h
Summary of the method: as §1

K. Pneumonia 123132 = assay: Growth inhibition assay (MIC); format: cell-based, Klebsiella pneumoniae
Summary of the method: as §1

[1] = tested on: K. Pneumonia K6, ATCC 700603; assay: Growth inhibition assay (MIC); format: cell-based, Klebsiella pneumoniae; settings: multidrug resistant strain; 1% TSB, 37° C., 20 hrs
Summary of the method: as §1

[2] = tested on: R. radiobatter ATCC 15955; assay: Growth inhibition assay (MIC); format: cell-based, Rhizobium radiobacter
Summary of the method: as §1

E. coli BL 21 AI = assay: Growth inhibition assay (MIC); format: cell-based, Escherichia coli; settings: 1% TSB, 37° C., 20 hrs
Summary of the method: (§2)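 Peptides were serially diluted two-fold in 1% TSB, giving final concentrations from 125 μg/mL down to 60 ng/mL, and mixed with overnight bacterial culture adjusted to 5×10^6 CFU/mL in 1% TSB. After 20 hrs at 37 °C, growth was read as absorbance at 595 nm, in triplicate, with sterile water as negative control.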

E. coli DC 2 = assay: Growth inhibition assay (MIC); format: cell-based, Escherichia coli; settings: 1% TSB, 37° C., 20 hrs
Summary of the method: as §2

M. luteus ATCC 10240 = format: cell-based, Micrococcus luteus
Summary of the method: as §2

E. coli 1103 = format: cell-based, Escherichia coli
Summary of the method: as §2

K. pneumonia 681 = format: cell-based, Klebsiella pneumoniae
Summary of the method: as §2

Mycobacterium vaccae = format: cell-based
Experimental: The minimal inhibition concentrations (MIC) of the apidaecin-derived peptides and peptide-derivatives were determined by a growth inhibition assay using a serial peptide dilution in sterilized round-bottom 96-well plates (polystyrene, U-bottom, Greiner Bio-One GmbH) with a final volume of 100 μL per well. The bacteria, e.g., E. coli BL21 A1, were grown in nutrient broth (NB, Carl Roth GmbH+Co. KG, Karlsruhe, Germany) at 37° C. over night. To each well of the 96-well plate, 50 μL of the overnight culture adjusted to 5×10^6 CFU/mL in 1% TSB were added. Lyophilized peptides and peptidomimetics were dissolved in 1% TSB (tryptic soy broth) or water to give a final concentration of 250 μg/mL. Fifty μL of the peptide or peptidomimetics solution were added to the first well of a row on the plate and mixed. Fifty μL of the first well containing the peptide solution were transferred to the second well, mixed and again 50 μL transferred to the next well and so on. Thereby, a two-fold dilution series was obtained starting at 250 μg/mL in the first well down to 120 ng/mL in the 12th well of a row giving a final peptide or peptidomimetics concentration from 125 μg/mL (well 1) to 60 ng/mL (well 12). Plates were incubated at 37° C. for 20 hrs. The absorbance was measured at 595 nm using a TECAN micro plate spectrophotometer (Tecan, Germany). All peptides and peptidomimetics were measured in triplicates. Sterilized water was used as a negative control.
The bacteria strains were tested: • Eschericha coli 1103, 10233, BL 21 AI, DC 2, • Klebsiella pneumoniae 681, • Micrococcus luteus ATCC 10240, • Mycobacterium vaccae • Bactillus subtillis 347.

B. subtilis 347 = format: cell-based, Bactillus subtillis
Summary of the method: as §2

[3] = tested on: S. enterica subsp. Enterica serovar. typhi G10215 ATCC 700408; format: cell-based, Salmonella enterica; settings: ATCC 700408, 20 h
Summary of the method: as §1

in vitro = in vitro ADME, mouse; settings: 37° C.
Summary of the method: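 Peptide or peptidomimetic (0.5 mg/mL aqueous stock) incubated in 25% pooled mouse serum at 37 °C, sampled at 0–6 h, in duplicate. Proteins precipitated with 15% TCA; supernatants neutralized and analyzed by RP-HPLC with 0.1% TFA. Degradation products identified by MALDI-TOF/TOF-MS.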

E. coli 10233 = format: cell-based, Escherichia coli; settings: 10233, 20 h
Summary of the method: as §2

[4] = multidrug resistant strain, 1% TSB, 37° C., 20 hrs

Row | Compound | MIC S. typhi S5 (S. typhi S5) [µg/mL] | MIC E. coli D31 (E. coli D31) [µg/mL] | MIC K. Pneumonia K6, ATCC 700603 [1] [µg/mL] | MIC E. coli BL 21 AI (E. coli BL 21 AI) [µg/mL] | MIC E. coli DC 2 (E. coli DC 2) [µg/mL] | MIC S. enterica subsp. Enterica serovar. typhi G10215 ATCC 700408 [3] [µg/mL] | MIC M. luteus ATCC 10240 (M. luteus ATCC 10240; ATCC 10240, 20 h) [µg/mL] | MIC E. coli 1103 (E. coli 1103; 1103, 20 h) [µg/mL] | MIC K. pneumonia 681 (K. pneumonia 681; 20 h) [µg/mL] | MIC Mycobacterium vaccae (Mycobacterium vaccae; 20 h) [µg/mL] | MIC B. subtilis 347 (B. subtilis 347; 347, 20 h) [µg/mL] | MIC E. coli 45849 (E. coli 45849; [4]) [µg/mL] | MIC K. Pneumonia 123132 (K. Pneumonia 123132; [4]) [µg/mL] | MIC R. radiobatter ATCC 15955 [2, 4] [µg/mL] | also measured
1 | CC[C@H](C)[C@H](NC(=O)[C@H](CCCNC(=N)N)NC(=O)[C@@H]1CCCN1C(=O)[C@H](Cc1c[nH]cn1)NC(=O)[C@@H]1CCCN1C(=O)[C@@H]1CCCN1C(=O)[C@H](CCCNC(=N)N)NC(=O)[C@@H]1CCCN1C(=O)[C@H](CCCN)NC(=O)[C@@H]1CCCN1C(=O)[C@@H](NC(=O)[C@H](Cc1ccc(O)cc1)NC(=O)[C@@H](NC(=O)[C@@H]1CCCN1C(=O)[C@H](CCCNC(=N)N)NC(=O)[C@H](CC(N)=O)NC(=O)[C@H](CC(N)=O)NC(=O)CN)C(C)C)[C@@H](C)CC)C(N)=O [compound 9] (H-GNNRPVYIP[Orn]PRPPHPRI-NH2) | 2 (≈ 0.955 µM) | 16 (≈ 7.64 µM) | 16 (≈ 7.64 µM) | 0.49 (≈ 0.234 µM) | 1.95 (≈ 0.931 µM) | – | – | – | – | – | – | – | – | – | MIC E. coli 45849 (E. coli 45849; 45849, 20 h): 1 µg/mL (≈ 0.478 µM); MIC K. Pneumonia 123132 (K. Pneumonia 123132; 20 h): 8 µg/mL (≈ 3.82 µM); MIC R. radiobatter ATCC 15955 ([2]; ATCC 15955, 20 h): <0.16 µg/mL; MIC M. luteus ATCC 10240 (M. luteus ATCC 10240; 1% TSB, 37° C., 20 hrs): 1.95 µg/mL (≈ 0.931 µM); MIC E. coli 1103 (E. coli 1103; 1% TSB, 37° C., 20 hrs): 3.9 µg/mL (≈ 1.86 µM); MIC K. pneumonia 681 (K. pneumonia 681; 1% TSB, 37° C., 20 hrs): 3.9 µg/mL (≈ 1.86 µM); MIC Mycobacterium vaccae (Mycobacterium vaccae; 1% TSB, 37° C., 20 hrs): 125 µg/mL (≈ 59.7 µM); MIC B. subtilis 347 (B. subtilis 347; 1% TSB, 37° C., 20 hrs): >125 µg/mL
2 | CC[C@H](C)[C@H](NC(=O)[C@H](CCCNC(=N)N)NC(=O)[C@@H]1CCCN1C(=O)[C@H](Cc1c[nH]cn1)NC(=O)[C@@H]1CCCN1C(=O)[C@@H]1CCCN1C(=O)[C@H](CCCNC(=N)N)NC(=O)[C@@H]1C[C@@H](O)CN1C(=O)[C@H](CCCNC(=N)N)NC(=O)[C@@H]1CCCN1C(=O)[C@@H](NC(=O)[C@H](Cc1ccc(O)cc1)NC(=O)[C@@H](NC(=O)[C@@H]1CCCN1C(=O)[C@H](CCCNC(=N)N)NC(=O)[C@H](CC(N)=O)NC(=O)[C@H](CC(N)=O)NC(=O)CN)C(C)C)[C@@H](C)CC)C(N)=O [compound 15] (H-GNNRPVYIPR[Hyp]RPPHPRI-NH2) | 2 (≈ 0.93 µM) | 64 (≈ 29.7 µM) | – | – | – | 2 (≈ 0.93 µM) | 1.95 (≈ 0.906 µM) | 1.95 (≈ 0.906 µM) | 3.9 (≈ 1.81 µM) | 125 (≈ 58.1 µM) | >125 | – | – | – | –
3 | CC[C@H](C)[C@H](NC(=O)[C@H](Cc1ccc(O)cc1)NC(=O)[C@@H](NC(=O)[C@@H]1CCCN1C(=O)[C@H](CCCNC(=N)N)NC(=O)[C@H](CC(N)=O)NC(=O)[C@H](CC(N)=O)NC(=O)[C@H](CCCN)NC(C)=O)C(C)C)C(=O)N1CCC[C@H]1C(=O)N[C@@H](CCC(N)=O)C(=O)N1CCC[C@H]1C(=O)N[C@@H](CCCNC(=N)N)C(=O)N1CCC[C@H]1C(=O)N1CCC[C@H]1C(=O)N[C@@H](Cc1c[nH]cn1)C(=O)N1CCC[C@H]1C(=O)N[C@@H](CCCNC(=N)N)C(=O)N(C)[C@@H](CC(C)C)C(N)=O [compound 32] (Ac-[Orn]NNRPVYIPQPRPPHPR[NMeL]-NH2) | 32 (≈ 14.4 µM) | 64 (≈ 28.8 µM) | >128 | 15.63 (≈ 7.04 µM) | – | 8 (≈ 3.6 µM) | 7.81 (≈ 3.52 µM) | 31.4 (≈ 14.1 µM) | >125 | – | >125 | 8 (≈ 3.6 µM) | >64 | 1.3 (≈ 0.585 µM) | Half-life time (in vitro; 25% aqueous mouse serum): >360 min; half-life at 0.061 mg/mL (in vitro; mouse, 25% aqueous serum, read-out: half-life): > 360 min; MIC E. coli 10233 (E. coli 10233): 31.25 µg/mL (≈ 14.1 µM)
4 | CC[C@H](C)[C@H](NC(=O)[C@H](CCCNC(=N)N)NC(=O)[C@@H]1CCCN1C(=O)[C@H](Cc1c[nH]cn1)NC(=O)[C@@H]1CCCN1C(=O)[C@@H]1CCCN1C(=O)[C@H](CCCNC(=N)N)NC(=O)[C@@H]1CCCN1C(=O)[C@H](CCCNC(=N)N)NC(=O)[C@@H]1CCCN1C(=O)[C@@H](NC(=O)[C@H](Cc1ccc(O)cc1)NC(=O)[C@@H](NC(=O)[C@@H]1CCCN1C(=O)[C@H](CCCNC(=N)N)NC(=O)[C@H](CC(N)=O)NC(=O)[C@H](CC(N)=O)NC(=O)[C@H](CCCN)NC(C)=O)C(C)C)[C@@H](C)CC)C(N)=O [compound 65] (Ac-[Orn]NNRPVYIPRPRPPHPRI-NH2) | – | – | – | 0.98 (≈ 0.439 µM) | 7.81 (≈ 3.49 µM) | – | 0.98 (≈ 0.439 µM) | 1.95 (≈ 0.873 µM) | 7.81 (≈ 3.49 µM) | 62.5 (≈ 28 µM) | 125 (≈ 55.9 µM) | – | – | – | –
5 | Ac-GNNRPVYIPRPRPPHPRL-NH2 [compound 67] | – | – | – | 3.91 | 3.9 | – | 1.95 | 3.9 | 3.9 | 125 | 125 | – | – | – | –
6 | GNNRPVYIPKPRPPHPRI-NH2 [compound 17] | 16 | 32 | 32 | 0.98 | 31.25 | 4 to 8 | 0.98 | 1.95 | 31.25 | – | – | 8 | 16 | 0.65 | –
7 | GNNRPVYIPRPRPPHPRI-NH2 [compound 14] | – | 64 | 8 | 0.49 | 7.81 | 2 | 0.98 | 0.98 | 15.62 | – | – | – | – | – | –
8 | H-GNNKPVYIPRPRPPHPRLV-NH2 [compound 68] | – | – | – | 7.81 | 7.81 | – | 0.24 | 3.9 | 31.25 | 125 | >125 | – | – | – | –
9 | H-GNNRPVYIPRPRPPHPRL-NH2 [compound 66] | – | – | – | 1.95 | 1.95 | – | 1.95 | 3.9 | 3.9 | 125 | 62.5 | – | – | – | –
10 | H-GNNRPVYLPQPRPPHPRI-NH2 [compound 26] | 32 | >128 | 128 | 3.91 | 7.81 | 4 | 1.95 | 3.91 | 15.62 | – | – | 16 | 32 | 2.6 | –
